Measured values published in PubChem BioAssay (NCI).
Values joined by “and” are separate entries in the source; they are usually repeats but may differ in a detail not shown here. Equal entries are not always repeated.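 Step 1: Grow cells in 96-well plates. Step 2: Expose to compound for 48 hours at 5 concentrations. Step 3: Interpolate endpoints linearly; if unreached, use highest concentration. The concentration for 50% growth inhibition is given as GI50. At the TGI there is no net growth.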

How the values were obtained:
Assay in all cases: NCI tumour cell line growth inhibition, 48 h
SK-MEL-2 melanoma = tested on: SK-MEL-2 melanoma
SK-MEL-5 melanoma = tested on: SK-MEL-5 melanoma
MOLT-4 leukemia = tested on: MOLT-4 leukemia
SNB-19 CNS = tested on: SNB-19 CNS
ACHN renal = tested on: ACHN renal
OVCAR-8 ovarian = tested on: OVCAR-8 ovarian
NCI-H522 lung = tested on: NCI-H522 lung
NCI-H226 lung = tested on: NCI-H226 lung
SF-295 CNS = tested on: SF-295 CNS
K-562 leukemia = tested on: K-562 leukemia

SMILES | TGI (SK-MEL-2 melanoma) [µM] | TGI (SK-MEL-5 melanoma) [µM] | TGI (MOLT-4 leukemia) [µM] | TGI (SNB-19 CNS) [µM] | TGI (ACHN renal) [µM] | TGI (OVCAR-8 ovarian) [µM] | TGI (NCI-H522 lung) [µM] | TGI (NCI-H226 lung) [µM] | TGI (SF-295 CNS) [µM] | TGI (K-562 leukemia) [µM] | GI50 (SK-MEL-2 melanoma) | GI50 (SK-MEL-5 melanoma) | GI50 (MOLT-4 leukemia) | GI50 (SNB-19 CNS) | GI50 (ACHN renal) [µM] | GI50 (OVCAR-8 ovarian) | GI50 (NCI-H522 lung) | GI50 (NCI-H226 lung) [µM] | GI50 (SF-295 CNS) | GI50 (K-562 leukemia)
CC[C@@]1(OC(=O)C(N)CCCCN)C(=O)OCc2c1cc1n(c2=O)Cc2cc3ccccc3nc2-1 (some centres undefined) | 1.39 | 0.184 | 0.13 | 12.2 | 0.129 | 3.1 | 2.39 | 2.7 | 0.813 | > 33.1 |  |  |  |  |  |  |  |  |  | 
CNC(=O)c1cc(Oc2cccc3nc(NC(=O)Nc4cc(C(F)(F)F)cc(C(F)(F)F)c4)ccc23)ccn1 | 25.6 | 24.2 | > 100 | 38 | 16.4 | 26.8 | 35.4 | 39.8 | 15.2 | > 100 | 12.7 µM | 6.2 µM | 35.9 µM | 5.31 µM | 3.8 | 5.09 µM | 6.65 µM | 4.21 | 3.69 µM | 9.29 µM
N#Cc1ccc(/C=C(/C(=O)c2ccccc2)c2ccccc2)cc1 | 33.2 | 26.8 | 10.4 | 50.1 | 33.1 | 22.1 | 29.2 | 31.5 | 35.2 | > 24.7 |  |  |  |  |  |  |  |  |  | 
C=C1c2ccccc2C(=O)c2c1c1c(C(=O)OC)c(OC(=O)OCc3ccc([N+](=O)[O-])cc3)ccc1n2Cc1ccccc1 | > 100 | 64.3 | 11.6 | 80.9 | > 100 | > 100 | 38.6 | 44.1 | > 100 | > 100 | 23.9 µM | 29.1 µM | 2.6 µM | 20.3 µM | 55.9 | 2.51 µM | 6.83 µM | 19.6 | 33.7 µM | 2.55 µM
Cc1cc(-c2nnc(/C=C/c3ccc4c(c3)OCO4)o2)n[nH]1 | > 50 | 39 | 39.5 | > 50 | > 50 | > 50 | 26.7 | > 50 | 38 | > 50 | 12.1 µM | 13 µM | 3.39 µM | 32.6 µM | 27.2 | 22.8 µM | 8.15 µM | > 50 | 7.04 µM | 1.83 µM
O=[N+]([O-])c1cccc(-c2nc(-c3ccc(Cl)cc3Cl)cn2-c2ccccc2)c1 | > 11.8 | > 33.3 | > 33.3 | > 18.2 | 5.42 | 2.64 | > 20.2 | > 33.3 | 0.976 | > 33.3 | 1.9 µM | 6.78 µM | 3.21 µM | 2.55 µM | 1.3 | 0.947 µM | 3.25 µM | 3.17 | 0.452 µM | > 9.26 µM
CCOC(=O)Nc1nc2ccccc2[nH]1 | > 100 | > 100 | > 100 | > 100 | > 100 | > 100 | > 79.3 | > 100 | > 100 | > 100 | 3.44 µM and 4.49 µM | 3.5 µM and 2.55 µM | 4.57 µM and 5 µM | 10.5 µM and 4.83 µM | 6.56 | 7.6 µM and 7.04 µM | 3.78 µM and 4.99 µM |  | 4.32 µM and 5.57 µM | 3.48 µM and 1.85 µM
